In article PMC10175918 (Communications Biology, 2023):
Like-named read-outs stand apart in the source and are kept apart here.

Key:
Test in all cases: TGFα-shedding assay-based GPCR screening with chimeric Gα subunit proteins
Type in all cases: cell-based
348 GPCRs [1] = molecular target: T1, 348 GPCRs (Homo sapiens, UniProt P43116); settings: 10µM, Favipiravir 100μM
T1 construct: expressed in transfected cells; host or cells: HEK293A

348 GPCRs [2] = molecular target: T2, 348 GPCRs (Homo sapiens, UniProt P32247); settings: 10µM, Favipiravir 100μM
T2 construct: expressed in transfected cells; host or cells: HEK293A
T2 sequence (P32247 1-399): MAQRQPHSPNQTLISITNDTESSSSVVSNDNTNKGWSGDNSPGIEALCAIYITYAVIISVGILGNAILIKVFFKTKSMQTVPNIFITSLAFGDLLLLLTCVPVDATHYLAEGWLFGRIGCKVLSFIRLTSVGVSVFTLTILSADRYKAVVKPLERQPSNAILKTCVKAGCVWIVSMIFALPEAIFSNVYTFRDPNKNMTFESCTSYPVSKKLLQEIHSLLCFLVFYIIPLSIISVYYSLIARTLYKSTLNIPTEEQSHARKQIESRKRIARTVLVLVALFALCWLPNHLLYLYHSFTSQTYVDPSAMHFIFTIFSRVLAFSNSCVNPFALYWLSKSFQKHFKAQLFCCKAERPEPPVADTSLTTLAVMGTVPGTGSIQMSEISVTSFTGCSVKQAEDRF

348 GPCRs [3] = molecular target: T3, 348 GPCRs (Homo sapiens, UniProt P20309)
T3 construct: expressed in transfected cells; host or cells: HEK293A
T3 sequence (P20309 whole entry): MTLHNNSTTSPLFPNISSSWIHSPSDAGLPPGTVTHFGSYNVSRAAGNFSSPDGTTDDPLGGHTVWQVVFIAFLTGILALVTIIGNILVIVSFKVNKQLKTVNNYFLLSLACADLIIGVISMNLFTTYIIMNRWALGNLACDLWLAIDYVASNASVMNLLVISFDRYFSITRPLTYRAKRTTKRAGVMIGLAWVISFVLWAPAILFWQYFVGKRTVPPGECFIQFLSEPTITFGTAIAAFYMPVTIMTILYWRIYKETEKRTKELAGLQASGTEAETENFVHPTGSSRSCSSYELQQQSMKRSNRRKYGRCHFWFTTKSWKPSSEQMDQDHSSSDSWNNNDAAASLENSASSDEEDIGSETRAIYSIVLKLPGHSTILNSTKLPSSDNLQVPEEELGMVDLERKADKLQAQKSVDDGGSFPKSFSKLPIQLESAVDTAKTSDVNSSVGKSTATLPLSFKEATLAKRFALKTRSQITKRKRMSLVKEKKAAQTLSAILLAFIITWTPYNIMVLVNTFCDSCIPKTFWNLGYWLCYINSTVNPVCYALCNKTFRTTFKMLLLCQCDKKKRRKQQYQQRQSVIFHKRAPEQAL

348 GPCRs [4] = molecular target: T4, 348 GPCRs (Homo sapiens, UniProt Q969V1); settings: 10µM, Favipiravir 100μM
T4 construct: expressed in transfected cells; host or cells: HEK293A
T4 sequence (Q969V1 whole entry): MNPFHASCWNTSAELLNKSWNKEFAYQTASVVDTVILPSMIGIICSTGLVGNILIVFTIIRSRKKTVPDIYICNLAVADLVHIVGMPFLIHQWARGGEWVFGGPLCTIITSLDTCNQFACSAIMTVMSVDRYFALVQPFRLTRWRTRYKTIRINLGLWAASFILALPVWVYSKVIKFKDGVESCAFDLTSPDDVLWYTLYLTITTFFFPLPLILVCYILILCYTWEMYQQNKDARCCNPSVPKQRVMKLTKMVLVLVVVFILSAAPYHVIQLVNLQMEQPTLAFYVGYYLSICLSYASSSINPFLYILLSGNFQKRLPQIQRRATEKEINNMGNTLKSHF

348 GPCRs [5] = molecular target: T5, 348 GPCRs (Homo sapiens, UniProt Q9Y5Y4); settings: 10µM, Favipiravir 100μM
T5 construct: expressed in transfected cells; host or cells: HEK293A
T5 sequence (Q9Y5Y4 1-395): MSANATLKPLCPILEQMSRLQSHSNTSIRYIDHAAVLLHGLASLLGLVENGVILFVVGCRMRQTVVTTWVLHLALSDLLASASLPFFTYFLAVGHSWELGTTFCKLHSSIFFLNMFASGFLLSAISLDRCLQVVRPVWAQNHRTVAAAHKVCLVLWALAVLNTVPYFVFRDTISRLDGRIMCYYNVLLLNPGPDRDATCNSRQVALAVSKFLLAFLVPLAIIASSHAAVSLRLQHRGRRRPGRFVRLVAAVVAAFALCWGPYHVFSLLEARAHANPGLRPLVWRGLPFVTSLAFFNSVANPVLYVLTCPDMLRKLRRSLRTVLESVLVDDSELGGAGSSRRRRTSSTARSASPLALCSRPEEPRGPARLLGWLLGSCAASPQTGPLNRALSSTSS

348 GPCRs [6] = molecular target: T6, 348 GPCRs (Homo sapiens, UniProt O00254); settings: 10µM, Favipiravir 100μM
T6 construct: expressed in transfected cells; host or cells: HEK293A
T6 sequence (O00254 22-374): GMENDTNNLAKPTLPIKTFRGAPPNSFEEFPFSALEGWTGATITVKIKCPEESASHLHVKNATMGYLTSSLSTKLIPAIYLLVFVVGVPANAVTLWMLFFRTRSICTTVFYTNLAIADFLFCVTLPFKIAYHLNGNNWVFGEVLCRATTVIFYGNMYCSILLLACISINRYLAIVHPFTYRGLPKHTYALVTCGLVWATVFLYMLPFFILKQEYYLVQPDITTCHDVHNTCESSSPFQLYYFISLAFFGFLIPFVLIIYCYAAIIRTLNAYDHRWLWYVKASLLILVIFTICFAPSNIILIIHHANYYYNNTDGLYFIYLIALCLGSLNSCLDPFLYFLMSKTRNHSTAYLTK

348 GPCRs [7] = molecular target: T7, 348 GPCRs (Homo sapiens, UniProt O95977); settings: 10µM, Favipiravir 100μM
T7 sequence (O95977 1-384): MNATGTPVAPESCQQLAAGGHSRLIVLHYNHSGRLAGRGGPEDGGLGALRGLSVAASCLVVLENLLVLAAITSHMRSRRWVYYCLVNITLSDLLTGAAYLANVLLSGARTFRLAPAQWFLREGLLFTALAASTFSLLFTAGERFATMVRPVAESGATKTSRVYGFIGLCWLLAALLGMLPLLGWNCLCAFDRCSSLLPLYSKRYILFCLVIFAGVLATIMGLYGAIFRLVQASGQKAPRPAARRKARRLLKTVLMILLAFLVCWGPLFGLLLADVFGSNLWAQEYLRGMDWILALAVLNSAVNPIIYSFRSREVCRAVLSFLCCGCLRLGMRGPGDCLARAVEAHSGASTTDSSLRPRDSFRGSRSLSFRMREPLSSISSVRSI

348 GPCRs [8] = molecular target: T8, 348 GPCRs (Homo sapiens, UniProt P28335); settings: 10µM, Favipiravir 100μM
T8 sequence (P28335 33-458): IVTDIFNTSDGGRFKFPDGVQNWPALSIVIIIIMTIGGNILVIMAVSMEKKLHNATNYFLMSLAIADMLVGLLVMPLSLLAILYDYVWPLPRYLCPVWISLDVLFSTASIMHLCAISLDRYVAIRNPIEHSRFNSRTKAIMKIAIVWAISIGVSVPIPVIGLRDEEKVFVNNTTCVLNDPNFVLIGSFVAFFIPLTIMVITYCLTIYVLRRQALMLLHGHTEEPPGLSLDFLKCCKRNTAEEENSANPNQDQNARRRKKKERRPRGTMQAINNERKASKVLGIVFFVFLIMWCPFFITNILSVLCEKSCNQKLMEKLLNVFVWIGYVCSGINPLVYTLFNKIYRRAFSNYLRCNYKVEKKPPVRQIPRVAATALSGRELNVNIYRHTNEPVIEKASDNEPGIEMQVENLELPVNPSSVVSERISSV

348 GPCRs [9] = molecular target: T9, 348 GPCRs (Homo sapiens, UniProt Q9NZD1); settings: 10µM, Favipiravir 100μM
T9 construct: expressed in transfected cells; host or cells: HEK293A
T9 sequence (Q9NZD1 whole entry): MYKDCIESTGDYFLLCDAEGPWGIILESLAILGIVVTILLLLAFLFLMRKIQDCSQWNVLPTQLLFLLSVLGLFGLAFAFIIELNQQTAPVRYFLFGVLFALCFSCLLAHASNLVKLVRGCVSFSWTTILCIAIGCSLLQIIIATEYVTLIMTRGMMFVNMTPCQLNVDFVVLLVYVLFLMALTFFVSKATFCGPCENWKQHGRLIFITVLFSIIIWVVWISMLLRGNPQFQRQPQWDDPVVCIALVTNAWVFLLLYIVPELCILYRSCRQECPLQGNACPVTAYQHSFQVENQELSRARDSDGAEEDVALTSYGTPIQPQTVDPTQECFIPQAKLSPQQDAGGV

348 GPCRs [10] = molecular target: T10, 348 GPCRs (Homo sapiens, UniProt Q9Y3P9); settings: 10µM, Favipiravir 100μM
T10 construct: expressed in transfected cells; host or cells: HEK293A
T10 sequence (Q9Y3P9 whole entry): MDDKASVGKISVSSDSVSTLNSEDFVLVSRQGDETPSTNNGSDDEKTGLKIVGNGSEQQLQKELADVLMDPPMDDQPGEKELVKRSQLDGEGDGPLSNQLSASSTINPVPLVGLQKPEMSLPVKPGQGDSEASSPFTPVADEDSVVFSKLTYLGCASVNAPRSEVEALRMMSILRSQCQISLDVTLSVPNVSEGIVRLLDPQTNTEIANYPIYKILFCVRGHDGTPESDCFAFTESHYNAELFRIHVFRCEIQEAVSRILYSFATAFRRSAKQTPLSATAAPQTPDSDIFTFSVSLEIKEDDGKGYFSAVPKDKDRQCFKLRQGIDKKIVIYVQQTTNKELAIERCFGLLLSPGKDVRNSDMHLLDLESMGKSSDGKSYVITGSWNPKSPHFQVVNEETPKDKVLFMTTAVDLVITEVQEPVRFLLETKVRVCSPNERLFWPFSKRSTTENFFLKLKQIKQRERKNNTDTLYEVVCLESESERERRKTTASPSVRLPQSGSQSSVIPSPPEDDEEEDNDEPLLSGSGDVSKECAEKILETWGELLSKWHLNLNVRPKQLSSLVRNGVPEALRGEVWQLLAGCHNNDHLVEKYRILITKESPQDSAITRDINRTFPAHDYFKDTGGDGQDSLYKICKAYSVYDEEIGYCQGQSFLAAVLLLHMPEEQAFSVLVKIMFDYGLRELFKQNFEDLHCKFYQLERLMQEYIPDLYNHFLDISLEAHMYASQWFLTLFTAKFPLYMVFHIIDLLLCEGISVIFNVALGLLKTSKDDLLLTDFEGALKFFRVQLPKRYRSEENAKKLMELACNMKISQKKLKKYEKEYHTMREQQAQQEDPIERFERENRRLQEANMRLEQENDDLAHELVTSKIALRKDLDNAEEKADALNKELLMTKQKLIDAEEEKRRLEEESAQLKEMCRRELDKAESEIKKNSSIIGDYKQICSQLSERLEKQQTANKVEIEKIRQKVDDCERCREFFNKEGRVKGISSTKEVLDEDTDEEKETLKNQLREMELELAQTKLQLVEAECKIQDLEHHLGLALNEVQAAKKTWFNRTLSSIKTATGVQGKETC

[11] = read-out: % GPCR activation compared to TPA, EP2 (prostaglandin E receptor 2)
[12] = read-out: % GPCR activation compared to TPA, BB3 (Bombesin receptor, subtype 3)
[13] = read-out: % GPCR activation compared to TPA, GPCR M3 (Muscarinic acetylcholine receptor M3)
[14] = read-out: % GPCR activation compared to TPA, MCHR2 (melanin concentrating hormone receptor 2)
[15] = read-out: % GPCR activation compared to TPA, DP2 (prostaglandin D2 receptor 2)
[16] = read-out: % GPCR activation compared to TPA, F2RL2 (coagulation factor II (thrombin) receptor-like 2)
[17] = read-out: % GPCR activation compared to TPA, S1PR4 (sphingosine-1-phosphate receptor 4)
[18] = read-out: % GPCR activation compared to TPA, 5-HT2C (5-hydroxytryptamine receptor 2C)
[19] = read-out: % GPCR activation compared to TPA, GPRC5D (G protein-coupled receptor class C group 5 member D)
[20] = read-out: % GPCR activation compared to TPA, RABGAP1 (Rab GTPase-activating protein 1)
[21] = EP2 (prostaglandin E receptor 2), read-out: % GPCR activation compared to TPA
[22] = BB3 (Bombesin receptor, subtype 3), read-out: % GPCR activation compared to TPA
[23] = GPCR M3 (Muscarinic acetylcholine receptor M3), read-out: % GPCR activation compared to TPA
[24] = MCHR2 (melanin concentrating hormone receptor 2), read-out: % GPCR activation compared to TPA
[25] = DP2 (prostaglandin D2 receptor 2), read-out: % GPCR activation compared to TPA
[26] = F2RL2 (coagulation factor II (thrombin) receptor-like 2), read-out: % GPCR activation compared to TPA
[27] = S1PR4 (sphingosine-1-phosphate receptor 4), read-out: % GPCR activation compared to TPA
[28] = 5-HT2C (5-hydroxytryptamine receptor 2C), read-out: % GPCR activation compared to TPA
[29] = GPRC5D (G protein-coupled receptor class C group 5 member D), read-out: % GPCR activation compared to TPA
[30] = RABGAP1 (Rab GTPase-activating protein 1), read-out: % GPCR activation compared to TPA

T1 sequence (P43116 whole entry): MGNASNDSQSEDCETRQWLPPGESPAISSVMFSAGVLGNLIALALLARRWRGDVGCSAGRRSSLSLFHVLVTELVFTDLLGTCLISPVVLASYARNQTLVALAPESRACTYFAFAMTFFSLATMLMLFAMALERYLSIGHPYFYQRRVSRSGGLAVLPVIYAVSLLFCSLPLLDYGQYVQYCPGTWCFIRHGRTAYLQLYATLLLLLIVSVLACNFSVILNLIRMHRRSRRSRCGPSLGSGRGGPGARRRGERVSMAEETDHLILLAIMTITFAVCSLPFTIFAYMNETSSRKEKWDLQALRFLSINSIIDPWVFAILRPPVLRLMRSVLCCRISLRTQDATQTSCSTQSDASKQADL

Row | SMILES | activation at 10 µM (348 GPCRs [1]; [11]) [%] | activation at 10 µM (348 GPCRs [2]; [12]) [%] | activation at 10 µM (348 GPCRs [3]; [13]) [%] | activation at 10 µM (348 GPCRs [4]; [14]) [%] | activation at 100 µM (348 GPCRs [5]; [15]) [%] | activation at 10 µM (348 GPCRs [6]; [16]) [%] | activation at 10 µM (348 GPCRs [7]; [17]) [%] | activation at 100 µM (348 GPCRs [8]; [18]) [%] | activation at 10 µM (348 GPCRs [9]; [19]) [%] | activation at 100 µM (348 GPCRs [10]; [20]) [%] | activation at 10 µM (348 GPCRs [1]; [21]) [%] | activation at 10 µM (348 GPCRs [2]; [22]) [%] | activation at 10 µM (348 GPCRs [3]; [23]) [%] | activation at 10 µM (348 GPCRs [4]; [24]) [%] | activation at 100 µM (348 GPCRs [5]; [25]) [%] | activation at 10 µM (348 GPCRs [6]; [26]) [%] | activation at 10 µM (348 GPCRs [7]; [27]) [%] | activation at 100 µM (348 GPCRs [8]; [28]) [%] | activation at 10 µM (348 GPCRs [9]; [29]) [%] | activation at 100 µM (348 GPCRs [10]; [30]) [%] | other results
1 | CC(C)OC(=O)[C@H](C)N[P@](=O)(OC[C@H]1O[C@@H](n2ccc(=O)[nH]c2=O)[C@](C)(F)[C@@H]1O)Oc1ccccc1 [sofosbuvir] | -1.21 | 7.68 | -1.32 | -1.19 | 0.675 | 1.05 | -2.24 | -0.973 | 0.492 | -1.28 | – | – | – | – | – | – | – | – | – | – | –
2 | CC(C)C(=O)OC[C@H]1O[C@@H](n2ccc(NO)nc2=O)[C@H](O)[C@@H]1O [molnupiravir] | – | – | – | – | – | – | – | – | – | – | -0.705 | 0.338 | -0.147 | -3.92 | 0.374 | -1.18 | -2.08 | -2.97 | -0.168 | -0.481 | –
3 | NC(=O)c1nc(F)cnc1O [favipiravir, 6-fluoro-3-hydroxy-2-pyrazinecarboxamide] | – | – | – | – | – | – | – | – | – | – | 0.965 | -0.00483 | – | -2.23 | 0.119 | -0.958 | -3.38 | 3.15 | -2.09 | -1.48 | activation at 100 µM (348 GPCRs [3]; GPCR M3 (Muscarinic acetylcholine receptor M3), 100μM, read-out: % GPCR activation compared to TPA): 0.164%
4 | N#C[C@@]1(c2ccc3c(N)ncnn23)O[C@H](CO)[C@@H](O)[C@H]1O [GS441524] | – | – | – | – | – | – | – | – | – | – | -0.304 | 1.72 | 3.5 | -0.458 | -0.745 | -2.64 | -3.24 | 0.017 | -1.93 | -1.83 | –
5 | CCC(CC)COC(=O)[C@H](C)N[P@](=O)(OC[C@H]1O[C@@](C#N)(c2ccc3c(N)ncnn23)[C@H](O)[C@@H]1O)Oc1ccccc1 [remdesivir] | 1.83 | 2.03 | 2.85 | -3.7 | 1.87 | -1.15 | -2.69 | -0.0017 | -0.473 | -0.577 | – | – | – | – | – | – | – | – | – | – | –
